Entries after “also recorded” stand apart in the source; their conditions may differ. Read-outs that look alike come from different tables or passages of the source.
Legend:
[1] = test system: MCF-7/Vector and MCF-7/Bcl-2 cells; assay: Viability of MCF-7 cells with high and low Bcl-2; assay type: cell-based, human; conditions: 10% FBS
Method: MDA-MB-231 and MCF-7 breast cancer cell lines stably overexpressing Bcl-2 were generated via electroporation and subsequent clonal expansion in G418-containing media. MDA-MB-231 cell clones with sufficiently high expression of Bcl-2 (MDA-MB-231/Bcl-2) determined by western blotting was selected for screening along with their vector controls (MDA-MB-231/Vector). Similarly MCF-7 cells clones were selected for characterization of lead molecules.
Cell viability was determined using CellTiter Glo Luminescent Cell Viability Assay (Promega, Madison, Wis.) as per manufacturer instructions. DAPI stain was used to assess apoptosis. Colony forming assays were performed as described previously.

Bcl-2 loop domain = Bcl-2 loop domain (Homo sapiens, UniProt P10415); assay: Limited proteolysis of GST tagged Bcl-2 loop domain with trypsin; assay type: biochemical; conditions: for Proteolysis of Bcl-2 loop domain: 50 μM, trypsin 1, 2, 4 and 8 min
Sequence of Bcl-2 loop domain (P10415 29-90 limits assumed): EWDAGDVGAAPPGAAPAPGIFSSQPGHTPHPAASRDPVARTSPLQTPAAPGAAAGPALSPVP
Method: FIG. 11B depicts proteolysis of Bcl-2 loop domain in the presence of methotrexate. GST tagged BCl-2 loop domain was incubated with 1 μM methotrexate at the indicated times to determine if methotrexate interaction with loop domain has an effect on the proteolysis pattern upon co incubation with trypsin.
Purified GST tagged Bcl-2 loop domain was incubated with 50 μM BFC1108 at the indicated times to determine if BFC1108 interaction with loop domain has an effect on the proteolysis pattern upon co-incubation with trypsin.
FIG. 22B depicts limited proteolysis of Bcl-2 loop domain in the presence of BFC1103.
(§1) GST-Bcl-2 and GST only fragments (60 μg) were incubated with 0.1% DMSO or BFC1103 (50 μM) for 1 h and proteolyzed by 3 μg/ml of trypsin for 1, 2, 4 and 8 min. Reactions were quenched by the addition of laemmli buffer. The resulting protease cleavage fragments were resolved on a 12% SDS-PAGE gel and visualized by coomassie blue staining.
as §1, with “GST-Bcl-2 loop71” for “GST-Bcl-2”, “Laemmli” for “laemmli”, “Coomassie” for “coomassie”

[2] = test system: MDA-MB-231/Vector and MDA-MB-231/Bcl-2 cells; assay: Clonogenic survival of MDA-MB-231 cells; assay type: cell-based, human
[3] = test system: Bcl-2 low and high expressing Jurkat lymphoma cells (Jurkat/Vector, Jurkat/Bcl-2); assay: Cell viability in Bcl-2 low and high expressing Jurkat cells; assay type: cell-based, human
[4] = test system: normal mammary epithelial cells (MCF-10A and HMECs); assay: Viability of normal mammary epithelial cells; assay type: cell-based, human
Source text: FIG. 9F depicts viability of methotrexate treated breast cancer cell line (ZR-75-1) in comparison to normal mammary epithelial cells (MCF-10A and HMECs).

[5] = test system: MDA-MB-231/Vector and MDA-MB-231/Bcl-2 cells; assay: Viability screening assay in MDA-MB-231 cells with high and low Bcl-2 (CellTiter Glo); assay type: cell-based, human; conditions: for Bcl-2 selective reduction in viability, MDA-MB-231/Bcl-2 vs MDA-MB-231/Vector: 10 μM, 10% serum; for Bcl-2 dependent reduction in viability, MDA-MB-231/Bcl-2 vs Vector: 10% FBS
Method: In one example, a triple negative breast cancer cell line, MDA-MB-231, was used for screening these libraries. […] At the end of the assay, cell viability was determined using the cell titer Glo assay. […] A hit was defined as a compound inducing more than 20% reduction in viability of MDA-MB-231/Bcl-2 cells, compared to vector controls (MDA-MB-231/Vector). In the next step these shortlisted small molecules were tested for their ability to convert the conformation of Bcl-2 into a pro-apoptotic one.
To screen for Bcl-2 selective compounds, MDA-MB-231 cells (MDA-MB-231/Vector and MDA-MB-231/Bcl-2) were plated at 4000 cells per well in a 96 well black opaque plate. The day after plating the cells, treatment from the library plates was done so as to add 1 μL of the compound into the cells, resulting in 10 μM concentration. For non-specific […], 25 nM of staurosporin was used. […] Post treatment viability was assessed by CellTiter Glo Cell Viability assay (Promega Inc., Madison, Wis.) as per manufacturer instructions.
Viability for test compounds in each cell line (MDA-MB-231/Vector and MDA-MB-231/Bcl-2) was normalized to their respective vehicle treatments. Compounds that had at least 20% less viability in the MDA-MB-231/Bcl-2 cell line than the MDA-MB-231/Vector cell line were selected as initial hits and shortlisted for revalidation. Revalidated compounds were reordered for further testing and characterization. All data analyses were performed using Microsoft Excel.

[6] = test system: WT MEF, Bax−/− MEF, Bak−/− MEF and Bax−/− Bak−/− MEF cells; assay: Viability of MEF cells with or without Bax or Bak; assay type: cell-based, mouse; conditions: 24 h, 10% serum; for Bax/Bak dependence of effect on MEF viability: 1 μM, WT, Bak−/− and DKO MEF; for viability at 1 µM: Mus musculus, MEF, normalized to vehicle
Method: WT MEF, BAX^−/− MEF, BAK^−/− MEF and Bax^−/− Bak^−/− MEF cells were treated with MTX at 1 μM concentration for 24 h in 10% serum conditions. Viability was assessed using the Glo assay. MTX treatments were normalized to 100% of Vehicle.
FIG. 17C WT MEF, Bax−/− MEF, Bak−/− MEF and Bax−/− Bak−/− MEF cells were treated with 1 μM BFC1108 for 24 h in 10% FBS medium and viability was assessed using cell titer glo assay.
WT MEF, Bax^−/− MEF, Bak^−/− MEF and Bax^−/− Bak^−/− MEF cells were treated with 1 μM BFC1103 for 24 h in 10% FBS medium and viability was assessed using cell titer glo assay.

H460 cells = assay: JC-1 staining of mitochondrial membrane potential; assay type: cell-based, human; conditions: 16 h, 10% FBS, 10 μM for MTX and BFC1103
Method: JC-1 was used to stain live cells undergoing treatment with MTX at 10 μM for 16 h and images taken with FITC and Rhodamine filters were overlayed. Cells stained orange have intact mitochondrial outer membrane and the ones turning green have compromised outer membrane indicating loss of membrane potential.
(§2) FIG. 17D JC-1 stain was used to stain live H460 cells that were treated with M BFC1108 for 16 h in 10% FBS containing medium and images taken with FITC and rhodamine filters were overlaid. Cells stained orange have intact mitochondrial outer membrane and the ones turning green have compromised outer membrane indicating loss of membrane potential.
as §2, with “JC-1” for “FIG. 17D JC-1”, “cells” for “cells that were”, “10 μM BFC1103” for “M BFC1108”

Bcl-2 = Bcl-2 (Homo sapiens, UniProt P10415); assay: Bcl-2 conformational change by Bcl-2 BH3 domain antibody and flow cytometry; conditions: 10 μM, 10% serum
Sequence of Bcl-2 (P10415 whole entry, the tested form may be a part): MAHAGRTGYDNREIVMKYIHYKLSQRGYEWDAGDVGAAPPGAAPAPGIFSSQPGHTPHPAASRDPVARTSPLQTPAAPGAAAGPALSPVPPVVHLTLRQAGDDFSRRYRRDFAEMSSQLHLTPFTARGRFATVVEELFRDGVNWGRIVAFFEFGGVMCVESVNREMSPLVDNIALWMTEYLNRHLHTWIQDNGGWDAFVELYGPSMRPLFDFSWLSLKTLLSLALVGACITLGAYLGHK
Method: MDA-MB231/Bcl-2 cells and H460 cells were exposed to MTX at 10 μM concentration for 24 h in a medium containing 10% serum. Change in Bcl-2 conformation was determined using Bcl-2 BH3 only anti-body followed by flow cytometric analysis.
Change in conformation of Bcl-2 was determined by using Bcl-2 BH3 antibody followed by flow cytometric analysis.
Change in conformation of Bcl-2 was determined by using Bcl-2 BH3 only antibody followed by flow cytometric analysis.
When there is a conformational change in Bcl-2 protein, the BH3 domain is exposed and is detected by the Bcl-2 BH3 domain antibody.

[7] = 10 μM, 48 h, colony formation for 2 weeks

Question: How did the “Bcl-2 dependent effect on viability, MCF-7/Bcl-2 vs MCF-7/Vector” value ([1]; 48 h) turn out when CCOc1ccccc1NC(=O)c1cc(Cl)ccc1NC(=O)c1ccc(OC)cc1 [BFC1108, 5-chloro-N-(2-ethoxyphenyl)-2-[(4-methoxybenzoyl)amino]-benzamide] was run?
Answer: MCF-7 cells with high-Bcl-2 expression are more sensitive to BFC1108

Question: What about the “Proteolysis of Bcl-2 loop domain” value (Bcl-2 loop domain) of the same compound?
Answer: increased proteolysis of Bcl-2 loop domain was noticeable by 4 min time point

Question: What about the “Effect on colony forming ability of low Bcl-2 expressing 231/Vector control cells” value [2, 7] of the same compound?
Answer: not seen

Question: What about the “Reduction in colony forming ability of MDA-MB-231/Bcl-2 cells compared to vehicle controls” value [2, 7] of the same compound?
Answer: 50%

Question: And the “Bcl-2 dependent effect on viability, Jurkat/Bcl-2 vs Jurkat/Vector” value ([3]; 48 h, 10% FBS)?
Answer: reduction in viability was seen compared to their Bcl-2 low-expressing control cells

Question: And the “Viability of normal mammary epithelial cells MCF-10A” value ([4]; 48 h, 10% serum)?
Answer: No effect on the viability of MCF-10A cells

Question: And the “Bcl-2 selective reduction in viability, MDA-MB-231/Bcl-2 vs MDA-MB-231/Vector” value ([5]; 24 h)?
Answer: better Bcl-2 selective induction of cell death

Question: What about the “Bcl-2 dependent reduction in viability, MDA-MB-231/Bcl-2 vs Vector” value ([5]; 48 h) of the same compound?
Answer: dose dependent reduction in viability of Bcl-2-high expressing cells (MDA-MB-231/Bcl-2), compared to their vector controls

Question: And the “Bax/Bak dependence of effect on MEF viability” value [6]?
Answer: no effect on viability in DKO MEFs, whereas Bax^−/− MEF and Bak^−/− MEF have diminished viability

Question: What about the “Mitochondrial membrane potential (JC-1 dye)” value (H460 cells) of the same compound?
Answer: decreased mitochondrial membrane potential

Question: And the “Change in Bcl-2 conformation (BH3 domain exposure) in MDA-MB-231/Bcl-2 cells” value (Bcl-2; 48 h)?
Answer: changed conformation of Bcl-2 was detected

Question: What does the source list for CCCCc1ccc(NC(=O)CN(Cc2ccccc2)S(C)(=O)=O)cc1 [BFC1103, N-2-benzyl-N-1-(4-butylphenyl)-N-2-(methylsulfo-nyl) glycinamide]?
Answer: Bcl-2 dependent effect on viability, MCF-7/Bcl-2 vs MCF-7/Vector ([1]; 10 μM, 24 h): reduced the viability of MCF-7 cells with high Bcl-2 levels, compared to Bcl-2 low expressing control cells; Proteolysis of Bcl-2 loop domain (Bcl-2 loop domain): delayed the proteolysis of the loop domain of Bcl-2; Clonogenic survival of MDA-MB-231 cells over-expressing Bcl-2 vs control cells [2, 7]: formed significantly fewer colonies, compared to control cells; Bcl-2 dependent effect on viability, Jurkat/Bcl-2 vs control ([3]; 10 μM, 24 h, 10% serum): reduced the viability of Jurkat human T cell leukemia cells with high Bcl-2 expression, compared to control cells; Viability of normal mammary epithelial cells MCF-10A ([4]; 24 h, 10% FBS): minimal effect on normal mammary epithelial cells (MCF-10A); Bcl-2 selective reduction in viability, MDA-MB-231/Bcl-2 vs MDA-MB-231/Vector ([5]; 24 h): Bcl-2 dependent reduction in viability of MDA-MB-231 cells; also recorded: Bcl-2 selective induction of cell death; Viability of MDA-MB-231 with increased Bcl-2 vs control cells under hypoxic conditions ([5]; hypoxic conditions): significant reduction in viability of MDA-MB-231 with increased Bcl-2 expression compared to the control cells; Bax/Bak dependence of effect on MEF viability [6]: wild type MEF cells, MEF cells without Bax or Bak expression had significant reduction in their viability compared to the double knockout (DKO) MEFs; Mitochondrial membrane potential (JC-1 dye) (H460 cells): decrease in their mitochondrial outer membrane potential; Change in Bcl-2 conformation (BH3 domain exposure) in MDA-MB-231/Bcl-2 cells (Bcl-2; 48 h): changed conformation of Bcl-2 of was detected in MDA-MB-231/Bcl-2 cells

Question: CN(Cc1cnc2nc(N)nc(N)c2n1)c1ccc(C(=O)N[C@@H](CCC(=O)O)C(=O)O)cc1 [MTX, (2S)-2-[[4-[(2,4 diaminopteridin-6-yl)methylmethylamino]benzoyl]amino] pentanedioc acid] was tested. Which “Bcl-2 dependent effect on viability, MCF-7/Bcl-2 vs MCF-7/Vector” value ([1]; 10 μM, 24 h) did it give?
Answer: Bcl-2 dependent effect of MTX was consistent in estrogen receptor (ER) positive MCF-7 cells over-expressing Bcl-2

Question: What about the “Proteolysis pattern of Bcl-2 loop domain” value (Bcl-2 loop domain; 1 μM methotrexate, trypsin) of the same compound?
Answer: differential proteolysis pattern

Question: What about the “Reduction in colonies formed by MDA-MB-231/Bcl-2 cells compared to vector controls” value ([2]; 10 μM MTX, 24 h) of the same compound?
Answer: 60%

Question: And the “Bcl-2 dependent effects in Jurkat Lymphoma cells” value ([3]; Bcl-2 low and high expressing Jurkat lymphoma cells treated for 72 hours with various concentrations)?
Answer: Yes

Question: What about the minimal effective concentration ([3]; Homo sapiens, Jurkat lymphoma cells, 72 hours, n/d means no reduction was detected at concentrations tested, read-out: Lowest effective dose (minimal effective concentration that induced Bcl-2-dependent reduction in cell viability)) of the same compound?
Answer: 0.01 µM

Question: And the “Viability of Jurkat/Bcl-2 vs Vector under hypoxic conditions” value ([3]; hypoxic conditions, 10% FBS, 24 h)?
Answer: significant reduction in viability of Jurkat/Bcl-2 cells compared to their Vector control

Question: What about the “Bcl-2 dependent apoptosis with folate supplementation” value ([3]; supplemented with 1 μM of folic acid) of the same compound?
Answer: Bcl-2 dependent apoptosis was still observed

Question: And the “Viability of normal breast epithelial cells MCF-10A and HMEC” value ([4]; similar concentrations of MTX as in cancer cells)?
Answer: relatively unaffected

Question: What about the “Bcl-2 selective reduction in viability, MDA-MB-231/Bcl-2 vs MDA-MB-231/Vector” value ([5]; 24 h) of the same compound?
Answer: selectively induce more cell death in high-Bcl-2 expressing MDA-MB-231 cells

Question: And the “Bcl-2 dependent reduction in viability, MDA-MB-231/Bcl-2 vs Vector” value ([5]; various concentrations, 24 h)?
Answer: reduced viability in MDA-MB-231/Bcl-2 cells significantly in comparison to the MDA-MB-231/Vector control cells

Question: What about the “Bax/Bak dependence of effect on MEF viability” value [6] of the same compound?
Answer: viability of Bax^−/− Bak^−/− MEF (DKO) cells was not effected

Question: What about the viability at 1 µM ([6]; read-out: Viability, Bak−/− MEF) of the same compound?
Answer: ~40%

Question: And the viability at 1 µM ([6]; read-out: Viability, Bax−/− MEF)?
Answer: ~40%

Question: And the viability at 1 µM ([6]; read-out: Viable cells, wild type MEF)?
Answer: ~30%

Question: What about the “Mitochondrial membrane potential (JC-1 dye)” value (H460 cells) of the same compound?
Answer: decrease in their mitochondrial membrane potential

Question: And the “Change in Bcl-2 conformation (BH3 domain exposure) in H460 cells” value (Bcl-2; 24 h)?
Answer: also observed in H460 cells

Question: What about the “Change in Bcl-2 conformation (BH3 domain exposure) in MDA-MB-231/Bcl-2 cells” value (Bcl-2; 24 h) of the same compound?
Answer: considerable shift in the staining of MTX treated cells indicating change in the Bcl-2 conformation

Source: patent US11419843B2, “Small molecule BCL-2 functional converters as cancer therapeutics” (Oregon State University, priority 2016, dated 2022)
